The source of these data is US20080171660A1, “Method of Controlling Weeds” (priority 2005, published 2008).

One experiment deals with Curly dock (RUMCR). Briefly: Field test, weed control, post-emergence, 15 DAT (Example 1). In kind it is in vivo. The note with it: use rate I.7 12.5 g/ha, tribenuron-methyl 10 g/ha. From the text: (§1) The phenyluracils I and/or the other active ingredients according to the present invention were formulated in a suitable way, either separately or in mixture, e.g. as emulsifiable concentrates (EC), soluble concentrates (SL), suspo-emulsions (SE), suspension concentrates (SC) or water-dispersible granules (WG). The formulation(s) were suspended or emulsified in water as a distribution medium immediately prior to spraying. Afterwards, the aqueous mixture was evenly sprayed on the test plots by means of finely distributing nozzles.
(§2) The test plots were of uniform size (typically between 14 and 37 square meters, each) and the distribution of treated and untreated plots was organized according to a randomised bloc design. Crops were sown in rows at a season which was typical for the region and the crop according to usual farm practice. Weeds were not sown but germinated according to the natural infestation.
(§3) For pre-plant and pre-plant burn-down treatments, the plots were treated before the crop was planted, typically 7 to 28 days prior to planting. For pre-emergence treatments, the plots were treated at planting (plus or minus two days) but before emergence. For post-emergence or in-crop treatments, the plots were treated after the emergence of the weed or crop, typically 20 to 50 days after planting. […]

Another experiment relates to Wild mustard (SINAR). Described as above. As to conditions: use rate I.7 12.5 g/ha, tribenuron-methyl 10 g/ha. It is filed as in vivo.
Description: as §1, §2, §3

Take `COC(=O)c1ccccc1S(=O)(=O)NC(=O)N(C)c1nc(C)nc(OC)n1` [tribenuron-methyl]: in the experiment with Curly dock (RUMCR), the “Weed control (% control) Curly dock (RUMCR) Found” value amounted to 40 % control. The “Weed control (% control) Wild mustard (SINAR) Found” value in the experiment with Wild mustard (SINAR) is recorded as 100 % control.
